The text below walks through data of patent US8975406B2, “Compound useful for the treatment of degenerative and inflammatory diseases” (Galapagos N.V., priority 2011, dated 2015).

Type in all cases: biochemical
The target in one test is T1, Recombinant human JAK1 (Homo sapiens, UniProt P23458).
T1 construct: catalytic domain (amino acids 866-1154; catalog number PV4774); purchased Invitrogen PV4774
Kind of test: JAK1 Ulight-JAK1 peptide assay. To be noted: Ulight-JAK1(tyr1023) peptide, 7 μM ATP. The procedure: Recombinant human JAK1 (catalytic domain, amino acids 866-1154; catalog number PV4774) was purchased from Invitrogen. 1 ng of JAK1 was incubated with 20 nM Ulight-JAK1(tyr1023) peptide (Perkin Elmer catalog number TRF0121) in kinase reaction buffer (25 mM MOPS pH6.8, 0.01% Brij-35, 5 mM MgCl2, 2 mM DTT, 7 μM ATP) with or without 4 μL containing test compound or vehicle (DMSO, 1% final concentration), in a total volume of 20 μL, in a white 384 Opti plate (Perkin Elmer, catalog number 6007290). After 60 min at room temperature, reactions were stopped by adding 20 μL/well of detection mixture (1× detection buffer (Perkin Elmer, catalog number CR97-100C), 0.5 nM Europium-anti-phosphotyrosine (PT66) (Perkin Elmer, catalog number AD0068), 10 mM EDTA). Readout is performed using the Envision with excitation at 320 nm and measuring emission at 615 nm (Perkin Elmer). Kinase activity was calculated by subtracting relative fluorescence units (RFU) obtained in the presence of a positive control inhibitor (10 μM staurosporine) from RFU obtained in the presence of vehicle. The ability of a test compound to inhibit this activity was determined as: Percentage inhibition=((RFU determined for sample with test compound present−RFU determined for sample with positive control inhibitor)divided by(RFU determined in the presence of vehicle−RFU determined for sample with positive control inhibitor))*100.
Dose dilution series were prepared for the compounds enabling the testing of dose-response effects in the JAK1 assay and the calculation of the IC50 for the compound. Each compound is routinely tested at concentration of 20 μM followed by a ⅕ serial dilution, 10 points in a final concentration of 1% DMSO. When potency of compound series increases, more dilutions are prepared and/or the top concentration are lowered (e.g. 5 μM, 1 μM). The data are expressed as the average IC50 from the assays±standard error of the mean.

A further test addresses T2, Recombinant human JAK2 (Homo sapiens, UniProt O60674).
T2 construct: catalytic domain (amino acids 808-1132; catalog number PV4210); GST; purchased Invitrogen PV4210
Briefly: JAK2 Ulight-JAK1 peptide assay. To be noted: Ulight-JAK1(tyr1023) peptide, 7.5 μM ATP. On the procedure: Recombinant human JAK2 (catalytic domain, amino acids […]; catalog number PV4210) was purchased from Invitrogen. 0.0125 mU of JAK2 was incubated with 25 nM Ulight-JAK1(tyr1023) peptide (Perkin Elmer catalog number TRF0121) in kinase reaction buffer (25 mM HEPES pH7.0, 0.01% Triton X-100, 7.5 mM MgCl2, 2 mM DTT, 7.5 μM ATP) with or without 4 μL containing test compound or vehicle (DMSO, 1% final concentration), in a total volume of 20 μL, in a white 384 Opti plate (Perkin Elmer, catalog number 6007290). After 60 min at room temperature, reactions were stopped by adding 20 μL/well of detection mixture (1× detection buffer (Perkin Elmer, catalog number CR97-100C), 0.5 nM Europium-anti-phosphotyrosine (PT66) (Perkin Elmer, catalog number AD0068), 10 mM EDTA). Readout is performed using the Envision with excitation at 320 nm and measuring emission at 615 nm (Perkin Elmer). Kinase activity was calculated by subtracting relative fluorescence units (RFU) obtained in the presence of a positive control inhibitor (10 μM staurosporine) from RFU obtained in the presence of vehicle. The ability of a test compound to inhibit this activity was determined as: Percentage inhibition=((RFU determined for sample with test compound present−RFU determined for sample with positive control inhibitor)divided by(RFU determined in the presence of vehicle−RFU determined for sample with positive control inhibitor))*100.
Dose dilution series were prepared for each compound enabling the testing of dose-response effects in the JAK2 assay and the calculation of the IC50 for the compound. Each compound is routinely tested at concentration of 20 μM followed by a ⅕ serial dilution, 10 points in a final concentration of 1% DMSO. When potency of compound series increases, more dilutions are prepared and/or the top concentration are lowered (e.g. 5 μM, 1 μM). The data are expressed as the average IC50 from the assays±standard error of the mean.

Test [1] has as its target T3, Recombinant human JAK3 catalytic domain (Homo sapiens, UniProt P52333).
T3 construct: catalytic domain (amino acids 795-1124; catalog number 08-046); purchased Carna Biosciences 08-046
Briefly: JAK3 inhibition assay. Conditions: polyGT substrate, 33P-gamma-ATP filter assay, 1 μM ATP. On the procedure:
Recombinant human JAK3 catalytic domain (amino acids 795-1124; catalog number 08-046) was purchased from Carna Biosciences. 0.5 ng JAK3 protein was incubated with 2.5 μg polyGT substrate (Sigma catalog number P0275) in kinase reaction buffer (25 mM Tris pH 7.5, 0.5 mM EGTA, 10 mM MgCl2, 2.5 mM DTT, 0.5 mM Na3VO4, 5 mM b-glycerolphosphate, 0.01% Triton X-100, 1 μM non-radioactive ATP, 0.25 μCi ^33P-gamma-ATP (Perkin Elmer, catalog number NEG602K001MC) final concentrations) with or without 5 μL containing test compound or vehicle (DMSO, 1% final concentration), in a total volume of 25 μL, in a polypropylene 96-well plate (Greiner, V-bottom). After 45 min at 30° C., reactions were stopped by adding 25 μL/well of 150 mM phosphoric acid. All of the terminated kinase reaction was transferred to prewashed (75 mM phosphoric acid) 96 well filter plates (Perkin Elmer catalog number 6005177) using a cell harvester (Perkin Elmer). Plates were washed 6 times with 300 μL per well of a 75 mM phosphoric acid solution and the bottom of the plates was sealed. 40 μL/well of Microscint-20 was added, the top of the plates was sealed and readout was performed using the Topcount (Perkin Elmer). Kinase activity was calculated by subtracting counts per min (cpm) obtained in the presence of a positive control inhibitor (10 μM staurosporine) from cpm obtained in the presence of vehicle. The ability of a test compound to inhibit this activity was determined as: Percentage inhibition=((cpm determined for sample with test compound present−cpm determined for sample with positive control inhibitor)divided by(cpm determined in the presence of vehicle−cpm determined for sample with positive control inhibitor))*100.
Dose dilution series were prepared for the compounds enabling the testing of dose-response effects in the JAK3 assay and the calculation of the IC50 for each compound. Each compound was routinely tested at concentration of 20 μM followed by a ⅕ serial dilution, 10 points in a final concentration of 1% DMSO. When potency of compound series increased, more dilutions were prepared and/or the top concentration was lowered (e.g. 5 μM, 1 μM).

The structures appear in SMILES notation.

T2 sequence (O60674 808-1132): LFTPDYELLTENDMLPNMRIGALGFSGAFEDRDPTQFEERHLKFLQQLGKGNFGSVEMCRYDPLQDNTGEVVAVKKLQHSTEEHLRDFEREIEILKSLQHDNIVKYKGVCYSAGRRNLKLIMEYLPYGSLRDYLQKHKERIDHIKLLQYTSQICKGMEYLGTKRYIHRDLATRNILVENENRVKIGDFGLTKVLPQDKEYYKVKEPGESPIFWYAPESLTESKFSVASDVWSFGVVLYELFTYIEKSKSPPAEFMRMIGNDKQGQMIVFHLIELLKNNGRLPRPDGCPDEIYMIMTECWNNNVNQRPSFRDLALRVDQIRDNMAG
T1 sequence (P23458 866-1154): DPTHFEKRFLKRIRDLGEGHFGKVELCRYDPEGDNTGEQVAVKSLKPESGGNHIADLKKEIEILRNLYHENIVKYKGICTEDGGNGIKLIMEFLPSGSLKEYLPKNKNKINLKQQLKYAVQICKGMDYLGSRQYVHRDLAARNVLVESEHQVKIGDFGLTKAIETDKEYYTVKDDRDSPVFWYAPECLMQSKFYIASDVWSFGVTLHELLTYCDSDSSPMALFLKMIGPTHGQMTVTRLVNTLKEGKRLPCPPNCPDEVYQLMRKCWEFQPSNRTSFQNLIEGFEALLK
T3 sequence (P52333 795-1124): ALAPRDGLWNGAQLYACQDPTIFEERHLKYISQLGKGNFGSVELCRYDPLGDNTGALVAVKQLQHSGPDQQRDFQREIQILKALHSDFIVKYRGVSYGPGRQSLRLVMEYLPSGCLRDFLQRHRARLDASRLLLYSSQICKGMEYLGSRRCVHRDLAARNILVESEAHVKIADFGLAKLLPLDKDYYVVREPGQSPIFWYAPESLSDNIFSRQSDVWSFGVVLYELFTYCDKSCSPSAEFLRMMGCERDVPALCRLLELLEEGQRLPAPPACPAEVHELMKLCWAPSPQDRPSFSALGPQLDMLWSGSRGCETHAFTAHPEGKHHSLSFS

As to `CC(=O)Nc1cc2c(-c3ccc(CC(=O)N4CCC4)cc3)cccn2n1` [Compound 33, N-(4-(4-(2-(azetidin-1-yl)-2-oxoethyl)phenyl)pyrazolo[1,5-a]pyridin-2-yl)acetamide], the IC50 – broadly, the point on the concentration scale where inhibition reaches its midpoint – on Recombinant human JAK1 was 101 to 500 nM; on Recombinant human JAK2, 101 to 500 nM; in test [1], greater than 1000 nM.
For the molecule `CC(=O)Nc1cc2c(-c3ccc(C(=O)N4C[C@@H](C)O[C@@H](C)C4)cc3)cccn2n1` [Compound 39, N-(4-(4-((2S,6R)-2,6-dimethylmorpholine-4-carbonyl)phenyl)pyrazolo[1,5-a]pyridin-2-yl)acetamide], the IC50 on Recombinant human JAK1 and at Recombinant human JAK2 was 101 to 500 nM each time.
Turning to `CC(=O)Nc1cc2c(-c3ccc(C(=O)N4CCOCC4)cc3)cccn2n1` [Compound 42, N-(4-(4-(morpholine-4-carbonyl)phenyl)pyrazolo[1,5-a]pyridin-2-yl)acetamide], the half-inhibitory concentration (IC50) is 501 to 1000 nM on Recombinant human JAK1 and 101 to 500 nM on Recombinant human JAK2.
The matching figures for `CC(=O)Nc1cc2c(-c3ccc(C(=O)N4CC(F)(F)C4)cc3)cccn2n1` [Compound 41, N-(4-(4-(3,3-difluoroazetidine-1-carbonyl)phenyl)pyrazolo[1,5-a]pyridin-2-yl)acetamide]: 101 to 500 nM and 101 to 500 nM.
With `CC(=O)Nc1cc2c(-c3ccc(CC(=O)N4C[C@@H](C)O[C@@H](C)C4)cc3)cccn2n1` [Compound 37, N-(4-(4-(2-((2S,6R)-2,6-dimethylmorpholino)-2-oxoethyl)phenyl)pyrazolo[1,5-a]pyridin-2-yl)acetamide], the values for the 50% inhibitory concentration (IC50) at Recombinant human JAK1 and on Recombinant human JAK2 were greater than 1000 nM and 101 to 500 nM, respectively.
As for `CC(=O)Nc1cc2c(-c3ccc(C(=O)N4CCCCC4)cc3)cccn2n1` [Compound 40, N-(4-(4-(piperidine-1-carbonyl)phenyl)pyrazolo[1,5-a]pyridin-2-yl)acetamide], the IC50 at Recombinant human JAK1 and on Recombinant human JAK2 was 101 to 500 nM in each case.
With `CC(=O)Nc1cc2c(-c3ccc(C(=O)N4COCC4(C)C)cc3)cccn2n1` [Compound 31, N-(4-(4-(4,4-dimethyloxazolidine-3-carbonyl)phenyl)pyrazolo[1,5-a]pyridin-2-yl)acetamide], the IC50 at Recombinant human JAK1 and at Recombinant human JAK2 was 101 to 500 nM throughout.
For `O=C(Nc1nn2cccc(-c3ccc(C(=O)N4CCCCC4)cc3)c2c1Cl)C1CC1` [Compound 16, N-(3-chloro-4-(4-(piperidine-1-carbonyl)phenyl)pyrazolo[1,5-a]pyridin-2-yl)cyclopropanecarboxamide], the half-inhibitory concentration (IC50) on Recombinant human JAK1 was 101 to 500 nM; at Recombinant human JAK2, greater than 1000 nM.
The like results for `CC(=O)Nc1cc2c(-c3cnc(OCCn4cccn4)c(F)c3)cccn2n1` [Compound 30] were, in that order, 101 to 500 nM and 101 to 500 nM.
For `CC(=O)Nc1cc2c(-c3ccc(C(=O)N4CCC4)cc3)cccn2n1` [Compound 32, N-(4-(4-(azetidine-1-carbonyl)phenyl)pyrazolo[1,5-a]pyridin-2-yl)acetamide], the IC50 on Recombinant human JAK1 and at Recombinant human JAK2 was 101 to 500 nM throughout.
As to `COC(=O)N1CCN(Cc2ccc(-c3cccn4nc(NC(C)=O)cc34)cc2)CC1` [Compound 22], the IC50 at Recombinant human JAK1 and at Recombinant human JAK2 was 101 to 500 nM throughout.
